Results taken from patent publication US11209582B2, “Composition, curable composition, cured film, near infrared cut filter, infrared transmitting filter, solid image pickup element, infrared sensor, and camera module” (FUJIFILM Corporation, priority 2016, dated 2021).

Assays:
[1] = Absorption spectrum in solution (absorption maximum λmax, absorption coefficient); assay type: physicochemical
Excerpt: It is preferable that the compound represented by Formula (1) is a compound having an absorption maximum in a wavelength range of 700 to 1200 nm. In addition, a ratio A1/A2 of an absorbance A1 at a wavelength of 500 nm to an absorbance A2 at the absorption maximum is preferably 0.1 or lower and more preferably 0.05 or lower. The absorbance of the compound is a value obtained from the absorption spectrum of the compound in the solution. Examples of a measurement solvent used for the measurement of the absorption spectrum of the compound represented by Formula (1) in the solution include chloroform, dimethyl sulfoxide, and tetrahydrofuran. In a case where the compound represented by Formula (1) is soluble in chloroform, chloroform is used as the measurement solvent. In addition, in a case where the compound represented by Formula (1) is not soluble in chloroform and is soluble in dimethyl sulfoxide or tetrahydrofuran, dimethyl sulfoxide or tetrahydrofuran is used as the measurement solvent.

[2] = Measurement of solubility in solvent at 25° C.; assay type: physicochemical; conditions: organic solvent or mixture, thermodynamic from solid; in propylene glycol monomethyl ether acetate and 2-butanol at 25° C.
Method: <Measurement of Solubility>
A measurement sample was added to a solvent at 25° C. under the atmospheric pressure, the solution was stirred for 1 hour, and the solubility of the measurement sample in the solvent was obtained.

| SMILES | λmax (absorption maximum) ([1]; in chloroform) [nm] | also measured |
| --- | --- | --- |
| CCC(C)COc1ccc(-c2c3c(=C(C#N)c4nc5ccccc5s4)n(B(c4ccccc4)c4ccccc4)c(-c4ccc(OCC(C)CC)cc4)c3c(=C(C#N)c3nc4ccccc4s3)n2B(c2ccccc2)c2ccccc2)cc1 (centres unmarked) [A-1] | 780 |  |
| CCC(C)COc1ccc(-c2c3c(=C(C#N)c4nc5cc(C)ccc5s4)n(B(c4ccccc4)c4ccccc4)c(-c4ccc(OCC(C)CC)cc4)c3c(=C(C#N)c3nc4cc(C)ccc4s3)n2B(c2ccccc2)c2ccccc2)cc1 (centres unmarked) [A-4] | 785 |  |
| CCC(C)COc1ccc(-c2c3c(=C(C#N)c4nc5ccc(C)cc5s4)n(B(c4ccccc4)c4ccccc4)c(-c4ccc(OCC(C)CC)cc4)c3c(=C(C#N)c3nc4ccc(C)cc4s3)n2B(c2ccccc2)c2ccccc2)cc1 (centres unmarked) [A-5] | 788 |  |
| CCC(C)COc1ccc(-c2c3c(=C(C#N)c4nc5cc(OC)ccc5s4)n(B(c4ccccc4)c4ccccc4)c(-c4ccc(OCC(C)CC)cc4)c3c(=C(C#N)c3nc4cc(OC)ccc4s3)n2B(c2ccccc2)c2ccccc2)cc1 (centres unmarked) [A-7] | 794 |  |
| N#CC(c1nc2ccccc2s1)=c1c2c(-c3ccc(O)cc3)n(B(c3ccccc3)c3ccccc3)c(=C(C#N)c3nc4ccccc4s3)c2c(-c2ccc(O)cc2)n1B(c1ccccc1)c1ccccc1 [A-9] |  | λmax (absorption maximum) ([1]; in dimethyl sulfoxide (DMSO)): 782 nm |
| N#CC(c1nc2cc(Cl)ccc2s1)=c1c2c(-c3ccc(O)cc3)n(B(c3ccccc3)c3ccccc3)c(=C(C#N)c3nc4cc(Cl)ccc4s3)c2c(-c2ccc(O)cc2)n1B(c1ccccc1)c1ccccc1 [A-10] |  | λmax (absorption maximum) ([1]; in dimethyl sulfoxide (DMSO)): 782 nm |
| Cc1cc2nc(C(C#N)=c3c4c(-c5ccc(O)cc5)n(B(c5ccccc5)c5ccccc5)c(=C(C#N)c5nc6cc(C)c(C)cc6s5)c4c(-c4ccc(O)cc4)n3B(c3ccccc3)c3ccccc3)sc2cc1C [A-14] |  | λmax (absorption maximum) ([1]; in dimethyl sulfoxide (DMSO)): 795 nm |
| COc1ccc2sc(C(C#N)=c3c4c(-c5ccc(O)cc5)n(B(c5ccccc5)c5ccccc5)c(=C(C#N)c5nc6cc(OC)ccc6s5)c4c(-c4ccc(O)cc4)n3B(c3ccccc3)c3ccccc3)nc2c1 [A-15] |  | gram absorption coefficient [1]: 200 L/g/cm; molar absorption coefficient [1]: 185000 L/mol/cm; λmax (absorption maximum) ([1]; in dimethyl sulfoxide (DMSO)): 795 nm |
| CCC(C)COc1cccc(-c2c3c(=C(C#N)c4nc5cc(C)c(C)cc5s4)n(B(c4ccccc4)c4ccccc4)c(-c4cccc(OCC(C)CC)c4)c3c(=C(C#N)c3nc4cc(C)c(C)cc4s3)n2B(c2ccccc2)c2ccccc2)c1 (centres unmarked) [A-30] | 795 |  |
| CCC(C)COc1ccc(-c2c3/c(=C(\C#N)c4cnc5ccccc5n4)n(B(c4ccccc4)c4ccccc4)c(-c4ccc(OCC(C)CC)cc4)c3/c(=C(\C#N)c3cnc4ccccc4n3)n2B(c2ccccc2)c2ccccc2)cc1 (centres unmarked) [A-201] | 862 |  |
| CN1C(=O)c2ccc(C(=O)Oc3ccc(-c4c5c(=C(C#N)c6cnc7cc(Cl)c(Cl)cc7n6)n(B(c6ccccc6)c6ccccc6)c(-c6ccc(OC(=O)c7ccc8c(c7)C(=O)N(C)C8=O)cc6)c5c(=C(C#N)c5cnc6cc(Cl)c(Cl)cc6n5)n4B(c4ccccc4)c4ccccc4)cc3)cc2C1=O [A-514] | 883 |  |
| N#C/C(c1cnc2cc(Cl)c(Cl)cc2n1)=c1\c2c(-c3ccc(OC(=O)c4ccc5c(c4)C(=O)N(CCCS(=O)(=O)O)C5=O)cc3)n(B(c3ccccc3)c3ccccc3)/c(=C(/C#N)c3cnc4cc(Cl)c(Cl)cc4n3)c2c(-c2ccc(OC(=O)c3ccc4c(c3)C(=O)N(CCCS(=O)(=O)O)C4=O)cc2)n1B(c1ccccc1)c1ccccc1 [B-634] |  | solubility at 1 h [2]: < 100 µg/mL |

More lines, main results first:

| λmax (absorption maximum) ([1]; in chloroform) [nm] | SMILES | also measured |
| --- | --- | --- |
| 782 | CCC(C)COc1ccc(-c2c3c(=C(C#N)c4nc5cc(Cl)ccc5s4)n(B(c4ccccc4)c4ccccc4)c(-c4ccc(OCC(C)CC)cc4)c3c(=C(C#N)c3nc4cc(Cl)ccc4s3)n2B(c2ccccc2)c2ccccc2)cc1 (centres unmarked) [A-2] |  |
| 786 | CCC(C)COc1ccc(-c2c3c(=C(C#N)c4nc5ccc(Cl)cc5s4)n(B(c4ccccc4)c4ccccc4)c(-c4ccc(OCC(C)CC)cc4)c3c(=C(C#N)c3nc4ccc(Cl)cc4s3)n2B(c2ccccc2)c2ccccc2)cc1 (centres unmarked) [A-3] |  |
| 794 | CCC(C)COc1ccc(-c2c3c(=C(C#N)c4nc5cc(C)c(C)cc5s4)n(B(c4ccccc4)c4ccccc4)c(-c4ccc(OCC(C)CC)cc4)c3c(=C(C#N)c3nc4cc(C)c(C)cc4s3)n2B(c2ccccc2)c2ccccc2)cc1 (centres unmarked) [A-6] |  |
| 802 | CCC(C)COc1ccc(-c2c3c(=C(C#N)c4nc5ccc(OC)cc5s4)n(B(c4ccccc4)c4ccccc4)c(-c4ccc(OCC(C)CC)cc4)c3c(=C(C#N)c3nc4ccc(OC)cc4s3)n2B(c2ccccc2)c2ccccc2)cc1 (centres unmarked) [A-8] |  |
| 782 | CCC(C)COc1cccc(-c2c3c(=C(C#N)c4nc5ccccc5s4)n(B(c4ccccc4)c4ccccc4)c(-c4cccc(OCC(C)CC)c4)c3c(=C(C#N)c3nc4ccccc4s3)n2B(c2ccccc2)c2ccccc2)c1 (centres unmarked) [A-25] |  |
| 717 | CCC(C)COc1ccc(-c2c3c(=C(C#N)c4nc5ccccc5s4)n(B4Oc5ccccc5O4)c(-c4ccc(OCC(C)CC)cc4)c3c(=C(C#N)c3nc4ccccc4s3)n2B2Oc3ccccc3O2)cc1 (centres unmarked) [A-60] |  |
| 800 | COc1ccc2sc(C(C#N)=c3c4c(-c5ccc(OC(=O)c6ccccc6)cc5)n(B(c5ccccc5)c5ccccc5)c(=C(C#N)c5nc6cc(OC)ccc6s5)c4c(-c4ccc(OC(=O)c5ccccc5)cc4)n3B(c3ccccc3)c3ccccc3)nc2c1 [A-81] |  |
| 883 | CCN(CC)CCCN1C(=O)c2ccc(C(=O)Oc3ccc(-c4c5/c(=C(\C#N)c6cnc7cc(Cl)c(Cl)cc7n6)n(B(c6ccccc6)c6ccccc6)c(-c6ccc(OC(=O)c7ccc8c(c7)C(=O)N(CCCN(CC)CC)C8=O)cc6)c5/c(=C(\C#N)c5cnc6cc(Cl)c(Cl)cc6n5)n4B(c4ccccc4)c4ccccc4)cc3)cc2C1=O [B-644] | solubility at 1 h [2]: < 100 µg/mL |
